Earlier results, collected in article PMC6270209, “Synthesis, Antimycobacterial Activity and In Vitro Cytotoxicity of 5-Chloro-N-phenylpyrazine-2-carboxamides” (Molecules, 2013).

Test system: M. tbc strains (PZA-sensitive, PZA-resistant)
Parameters: method as in PMID 9527809
Conditions: cited from earlier work

NC(=O)c1cnc(Cl)cn1 [Compound 5-Cl-PZA, 5-chloropyrazine-2-carboxamide, reference compound]
MIC for PZA-resistant strains (PZA-resistant strains): 8 to 64 µg/mL
MIC for PZA-sensitive M. tbc strains (PZA-sensitive strains): 8 to 32 µg/mL
